Data as given in patent US12441710B2, “Substituted piperidino compounds and related methods of treatment” (Alkermes, Inc., priority 2020, dated 2025).

How the values were obtained:
Assay type in all cases: in vitro ADME
MDR1 = experiment: MDCK-MDR1 permeability assay; conditions: dog, 3 μM test compound; for efflux ratio at 2 h, 3 μM: Papp (B→A) divided by Papp (A→B), read-out: Efflux ratio (ER); for Papp A→B at 2 h, 3 μM: apical to basolateral, 2 hours at 37 degrees C
Experimental: The bidirectional permeability (Apical to Basal and Basal to Apical directions) of test compounds in MDCK-MDR1 cells were evaluated using MDCK-MDR1 cells seeded in Solvo PreadyPort™ MDCK 96-well plate. Once the plate was received from ReadyCell (Barcelona, Spain), it was treated as per PreadyPort™ user's manual.
For the Apical to Basolateral (A→B) permeability, 80 μL of test compound (3 μM) co-dosed with LY (Lucifer Yellow) (100 μM) in HBSS (Hank's Balanced Salt Solution) assay buffer was added to the donor side (A) while 250 μL of HBSS buffer was added to the receiver side (B). For the Basolateral to Apical (B→A) permeability, 255 μL of test compound (3 μM) in HBSS assay buffer was added to the donor side (B) while 75 μL of HBSS buffer containing LY (100 μM) was added to the receiver side (A).
The plate was placed in an incubator set at 37 degrees C. After 10 minutes of pre-warming, 5 μL aliquot was taken from donor compartment and set aside as the dosing solution. The MDCK-MDR1 incubation plate was placed back into the incubator for 2 hours of incubation at 37 degrees C. After 2 hours of incubation, 25 μL and 5 μL aliquots were removed from the receiver and donor sides, respectively. To the 5 μL aliquots taken from the donor sides (before and after a 2-hour incubation) were diluted with 20 μL of the HBSS buffer. All samples were mixed with 150 μL with acetonitrile containing internal standard (IS) and 200 μL water, and analyzed by LC-MS/MS.
The apparent permeability (Papp) was calculated using the following formula: Papp=dQ/dt×1/A×C0 where: • dQ/dt: amount of translocated material over incubation time (nmol/s) • A: area of insert (0.14 cm^2 for PreadyPort™ MDR1-96) • C0: initial concentration of product applied in apical (A→B) or basal (B→A) compartment (nmol/mL).
The efflux ratio (ER) was measured by dividing the Papp (basolateral to apical direction) by Papp (apical to basolateral direction). It is a general measure of the involvement of active processes. An ER >2 is considered positive for active transport.
The data reported in Table 3 were obtained according to the MDCK-MDR1 permeability assay described above.

human hepatocytes = experiment: Hepatocytes stability assay (human hepatocytes); conditions: hepatic clearance divided by liver blood flow, fu assumed unity
Experimental: (§1) In vitro metabolic stability was assessed using cryopreserved hepatocytes from male Sprague Dawley rats and a pool of 50 mixed gender humans (BioIVT, Baltimore, MD). The incubation mixtures were prepared by mixing 250 μL of pre-warmed KHB (Krebs-Henseleit buffer) containing 2×10^6 cell/mL of hepatocytes with 250 μL of pre-warmed KHB buffer containing 2 μM of test compounds in a 48-well plate, giving a final concentration of 1 μM test compound (0.1% DMSO) and 1×10^6 cell/mL of hepatocytes. The reaction mixture was incubated at 37 degrees C. A 50 μL aliquot of incubation mixture was taken at time points (0, 15, 30, 60, 120 and 240 minutes) and transferred into a 96-well plate containing 300 μL ice-cold acetonitrile (containing 30 ng/mL of labetalol and 10 ng/mL of Naltrexone-d3 as internal standards) and immediately placed in ice to terminate the reaction. Samples were centrifuged, and supernatants were transferred into 96-well plates for liquid chromatography with tandem mass spectrometry (LC-MS/MS) analysis to monitor the depletion of the test compound. Data was calculated as percent remaining by assuming zero-minute time point peak area ratio (analyte/IS) as 100% and dividing remaining time point peak area ratios by zero-minute time point peak area ratio. Data were fitted to a first-order decay model to determine half-life. From a plot of log (ln) peak area against time, the slope of the line was determined. Subsequently, half-life (T1/2) and intrinsic clearance (CLint) were calculated using the equations below: • Elimination rate constant (k)=(−slope) • Half-life (T1/2) min=0.693/k • Intrinsic Clearance (CLint) (mL/min/million cells)=(V×0.693)/T1/2 • V=incubation volume mL/number of cells The in vitro T1/2 was converted to in vitro intrinsic clearance (CLint,hep) in units of mL/min/kg using the formula shown below: The in vitro intrinsic clearance (CLint,hep) was scaled to in vivo hepatic clearance (CL,hep) using the following equation which was adapted from a well-stirred model. [formula] where Q is the liver blood flow and fu is the fraction unbound (assumed to be unity in this case). All parameters used in the calculation are shown below (Table 4). The extraction ratio (ER) was calculated by dividing the hepatic clearance of a compound to the liver blood flow. The data reported in Table 5 were obtained according to the human hepatocytes stability assay described above.

[1] = Hepatocytes stability assay (human hepatocytes); conditions: both sexes, cryopreserved hepatocytes, 1 μM test compound, 1×10^6 cell/mL, read-out: CLint (μL/min/million cells)
Experimental: as §1

efflux ratio at 2 h, 3 μM (MDR1) | Papp A→B at 2 h, 3 μM (MDR1) [×10⁻⁶ cm/s] | Extraction Ratio (ER) (human hepatocytes) | hepatocyte CLint at 1 μM [1] [µL/min/1e6 cells] | SMILES
> 7.2 | < 0.9 | 0.88 | 49 | CS(=O)(=O)N[C@H]1CCN(c2ccccn2)CC1COC1CCC(c2ccccc2F)CC1 (stereo partly drawn) [Compound 5]
1.4 | 5.6 | 0.92 | 73 | CS(=O)(=O)N[C@H]1CCN(c2ccccn2)CC1COC1CCC(c2ccccc2)CC1 (stereo partly drawn) [Compound 10]
6.4 | 3 | 0.95 | 133 | CS(=O)(=O)N[C@H]1CCN(c2nccc3ncnn23)CC1COC1CCC(c2ccccc2)CC1 (stereo partly drawn) [Compound 44]
24 | 1.7 | 0.88 | 50 | CS(=O)(=O)N[C@H]1CCN(c2ccccn2)CC1COC1CCC(c2cccnc2)CC1 (stereo partly drawn) [Compound 3]
> 6.9 | < 0.28 | 0.83 | 32 | Cc1cccc(C2CCC(OCC3CN(c4ccccn4)CC[C@@H]3NS(C)(=O)=O)CC2)c1C (stereo partly drawn) [Compound 17]
> 7.9 | < 0.9 | 0.87 | 43 | Cc1cccc(C2CCC(OCC3CN(c4ccccn4)CC[C@@H]3NS(C)(=O)=O)CC2)c1 (stereo partly drawn) [Compound 16]
25 | 0.97 | 0.87 | 45 | CS(=O)(=O)N[C@H]1CCN(c2ccccn2)CC1COC1CCC(c2cnccn2)CC1 (stereo partly drawn) [Compound 9]
> 3.4 | < 1.2 | 0.96 | 154 | CS(=O)(=O)N[C@H]1CCN(c2ncccc2C(F)(F)F)CC1COC1CCC(c2ccccc2)CC1 (stereo partly drawn) [Compound 28]
30 | 0.28 | 0.86 | 42 | CS(=O)(=O)N[C@H]1CCN(c2ccc(F)cn2)CC1COC1CCC(c2ccccc2)CC1 (stereo partly drawn) [Compound 24]
35 | 0.69 | 0.94 | 101 | CS(=O)(=O)N[C@H]1CCN(c2cnccn2)CC1COC1CCC(c2ccccc2)CC1 (stereo partly drawn) [Compound 21]
15 | 1.8 | 0.82 | 30 | CS(=O)(=O)N[C@H]1CCN(c2ccccn2)CC1COC1CCC(c2ccncn2)CC1 (stereo partly drawn) [Compound 8]
18 | 0.67 | 0.71 | 16 | CS(=O)(=O)N[C@H]1CCN(c2ccccn2)CC1COC1CCC(c2ccnnc2)CC1 (stereo partly drawn) [Compound 13]
28 | 0.7 | 0.87 | 45 | CS(=O)(=O)N[C@H]1CCN(c2ccccn2)CC1COC1CCC(c2ccccc2O)CC1 (stereo partly drawn) [Compound 30]
> 58 | < 0.41 | 0.92 | 73 | CS(=O)(=O)N[C@H]1CCN(c2cc(F)ccn2)CC1COC1CCC(c2ccccc2)CC1 (stereo partly drawn) [Compound 25]
16 | 1.7 | 0.94 | 107 | CS(=O)(=O)N[C@H]1CCN(Cc2ccncc2)CC1COC1CCC(c2ccccc2)CC1 (stereo partly drawn) [Compound 41]
14 | 1.2 | 0.89 | 57 | CS(=O)(=O)N[C@H]1CCN(c2ccccn2)CC1COC1CCC(c2ccncc2)CC1 (stereo partly drawn) [Compound 4]
> 4.3 | < 1.2 | 0.85 | 39 | CS(=O)(=O)N[C@H]1CCN(c2ccccn2)CC1COC1CCC(c2ccc(F)cc2)CC1 (stereo partly drawn) [Compound 7]
11 | 1.6 | 0.76 | 21 | CS(=O)(=O)N[C@H]1CCN(c2ccccn2)CC1COC1CCC(c2ncccn2)CC1 (stereo partly drawn) [Compound 11]
3 | 2.7 | 0.92 | 75 | CS(=O)(=O)N[C@H]1CCN(c2ncccc2O)CC1COC1CCC(c2ccccc2)CC1 (stereo partly drawn) [Compound 27]
2.9 | 0.86 | 0.94 | 100 | CS(=O)(=O)N[C@H]1CCN(c2cccc3ccnn23)CC1COC1CCC(c2ccccc2)CC1 (stereo partly drawn) [Compound 42]
> 17 | < 0.42 | 0.82 | 30 | C[C@@]1(COC2CCC(c3ccccc3)CC2)CN(c2ccccn2)CC[C@@H]1NS(C)(=O)=O (stereo partly drawn) [Compound 29]
23 | 1.3 | 0.89 | 56 | CS(=O)(=O)N[C@H]1CCN(c2cccnn2)CC1COC1CCC(c2ccccc2)CC1 (stereo partly drawn) [Compound 22]
> 56 | < 0.12 | 0.77 | 22 | CS(=O)(=O)N[C@H]1CCN(c2ccccn2)CC1COC1CCC(c2cccnn2)CC1 (stereo partly drawn) [Compound 14]
15 | 1.4 | 0.90 | 59 | CS(=O)(=O)N[C@H]1CCN(Cc2ccccn2)CC1COC1CCC(c2ccccc2)CC1 (stereo partly drawn) [Compound 39]
34 | 0.41 | 0.94 | 110 | CS(=O)(=O)N[C@H]1CCN(c2ccccn2)CC1COC1CCC(c2ccc(O)cc2)CC1 (stereo partly drawn) [Compound 32]
33 | 1 | 0.84 | 35 | CS(=O)(=O)N[C@H]1CCN(c2ccccn2)CC1COC1CCC(c2cncnc2)CC1 (stereo partly drawn) [Compound 12]
 |  | 0.89 | 53 | CS(=O)(=O)N[C@H]1CCN(c2ccccn2)CC1COC1CCC(c2ccccn2)CC1 (stereo partly drawn) [Compound 2]
8.2 | 1.3 | 0.93 | 86 | CS(=O)(=O)N[C@H]1CCN(Cc2cccnc2)CC1COC1CCC(c2ccccc2)CC1 (stereo partly drawn) [Compound 40]
18 | 1 | 0.92 | 81 | CS(=O)(=O)N[C@H]1CCN(c2ccccn2)CC1COC1CCC(c2cccc(O)c2)CC1 (stereo partly drawn) [Compound 31]
